Target: LRRK2 (Homo sapiens, UniProt Q5S007, G2019S)
Assay: loss of constitutive phosphorylation in cells
Assay type: cell-based

LRRK2, sequence (Q5S007 whole entry G2019S): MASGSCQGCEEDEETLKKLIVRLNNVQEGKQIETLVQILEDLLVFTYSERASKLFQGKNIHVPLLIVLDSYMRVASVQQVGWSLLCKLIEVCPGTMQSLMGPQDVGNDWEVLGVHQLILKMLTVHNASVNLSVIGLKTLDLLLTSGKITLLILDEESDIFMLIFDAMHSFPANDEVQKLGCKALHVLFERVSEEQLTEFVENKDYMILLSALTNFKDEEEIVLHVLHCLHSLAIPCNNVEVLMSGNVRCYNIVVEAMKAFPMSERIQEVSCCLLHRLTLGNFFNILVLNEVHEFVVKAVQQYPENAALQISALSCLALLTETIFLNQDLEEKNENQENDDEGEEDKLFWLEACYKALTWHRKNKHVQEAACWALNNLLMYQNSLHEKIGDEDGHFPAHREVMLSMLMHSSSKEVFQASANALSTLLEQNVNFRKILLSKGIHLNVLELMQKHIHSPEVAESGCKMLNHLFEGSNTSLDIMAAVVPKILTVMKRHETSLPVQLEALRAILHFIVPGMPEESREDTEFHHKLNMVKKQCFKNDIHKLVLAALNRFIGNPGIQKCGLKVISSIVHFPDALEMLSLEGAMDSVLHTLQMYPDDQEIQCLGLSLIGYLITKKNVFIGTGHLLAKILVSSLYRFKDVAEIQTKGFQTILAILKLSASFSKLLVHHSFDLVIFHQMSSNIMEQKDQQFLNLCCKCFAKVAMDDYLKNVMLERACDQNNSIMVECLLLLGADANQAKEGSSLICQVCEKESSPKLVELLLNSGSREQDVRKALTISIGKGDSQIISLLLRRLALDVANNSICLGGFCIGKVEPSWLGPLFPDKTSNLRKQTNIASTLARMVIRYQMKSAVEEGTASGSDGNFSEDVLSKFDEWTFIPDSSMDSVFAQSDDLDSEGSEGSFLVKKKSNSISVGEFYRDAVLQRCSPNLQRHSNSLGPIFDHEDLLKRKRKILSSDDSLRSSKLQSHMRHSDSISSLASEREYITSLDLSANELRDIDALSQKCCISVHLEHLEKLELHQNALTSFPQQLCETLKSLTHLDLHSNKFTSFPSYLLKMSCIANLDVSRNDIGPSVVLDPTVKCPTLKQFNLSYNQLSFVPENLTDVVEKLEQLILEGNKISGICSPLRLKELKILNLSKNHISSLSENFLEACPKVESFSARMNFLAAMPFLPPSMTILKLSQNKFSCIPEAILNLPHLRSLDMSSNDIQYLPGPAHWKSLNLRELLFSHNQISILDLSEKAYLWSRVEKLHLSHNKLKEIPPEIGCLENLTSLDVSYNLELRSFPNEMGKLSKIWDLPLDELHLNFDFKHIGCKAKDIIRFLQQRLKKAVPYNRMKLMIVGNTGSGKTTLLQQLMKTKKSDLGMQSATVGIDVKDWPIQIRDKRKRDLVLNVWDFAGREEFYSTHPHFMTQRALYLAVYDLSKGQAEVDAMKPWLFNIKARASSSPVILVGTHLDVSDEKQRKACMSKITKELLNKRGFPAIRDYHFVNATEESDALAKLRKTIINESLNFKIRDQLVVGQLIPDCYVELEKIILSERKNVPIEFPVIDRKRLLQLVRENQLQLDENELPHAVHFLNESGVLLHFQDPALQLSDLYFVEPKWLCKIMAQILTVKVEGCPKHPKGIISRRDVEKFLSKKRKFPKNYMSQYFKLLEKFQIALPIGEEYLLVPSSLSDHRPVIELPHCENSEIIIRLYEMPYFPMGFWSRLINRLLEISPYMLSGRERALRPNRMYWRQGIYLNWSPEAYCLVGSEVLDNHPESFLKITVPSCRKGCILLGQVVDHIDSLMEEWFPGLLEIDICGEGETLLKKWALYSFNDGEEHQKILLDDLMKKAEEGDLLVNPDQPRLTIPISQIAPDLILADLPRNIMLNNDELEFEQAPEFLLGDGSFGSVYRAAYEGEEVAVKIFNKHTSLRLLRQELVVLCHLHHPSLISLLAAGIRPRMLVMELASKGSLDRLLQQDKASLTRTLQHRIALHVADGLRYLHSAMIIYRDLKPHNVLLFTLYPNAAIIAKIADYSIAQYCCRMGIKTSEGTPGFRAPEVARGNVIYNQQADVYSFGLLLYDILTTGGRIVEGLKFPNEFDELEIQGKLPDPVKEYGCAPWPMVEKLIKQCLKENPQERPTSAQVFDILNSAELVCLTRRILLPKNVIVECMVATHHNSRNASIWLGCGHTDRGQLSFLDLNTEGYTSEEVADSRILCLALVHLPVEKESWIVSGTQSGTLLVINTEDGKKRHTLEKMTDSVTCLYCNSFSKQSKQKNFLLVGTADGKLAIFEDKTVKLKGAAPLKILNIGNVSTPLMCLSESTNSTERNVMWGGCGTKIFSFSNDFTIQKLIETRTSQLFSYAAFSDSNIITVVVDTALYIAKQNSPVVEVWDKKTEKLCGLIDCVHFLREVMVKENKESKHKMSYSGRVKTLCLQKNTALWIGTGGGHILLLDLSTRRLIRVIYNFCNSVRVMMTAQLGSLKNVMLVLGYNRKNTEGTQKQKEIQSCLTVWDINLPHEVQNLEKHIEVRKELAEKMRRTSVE

COc1cc(C(=O)N2CCC(N3CCN(C)CC3)CC2)ccc1Nc1ncc2c(n1)N(C)c1ccccc1C(=O)N2C [LRRK2-IN1]
loss of constitutive phosphorylation in cells: The pathogenic G2019S mutation in the kinase domain is phosphorylated and sensitive to the effects of LRRK2-IN1
